The test system of assay [1] is p-PLCγ2 (pY1217) in Ramos cells. The experiment in a line: p-PLCγ2 inhibition assay in Ramos cells (Western blot). Particulars: compound 1 hour, anti-human IgM stimulation. In kind it is cell-based. As for the experimental part: Ramos cells (purchased from the Beijing Union Medical College) with starvation culture for 1 hour were treated with the compounds of the present invention for 1 hour, and then rinsed with PBS buffer (pH 7.2) to remove the compounds. Then they were resuspended in 100 μL of serum-free culture medium containing 1 μM of anti-human IgM F(ab′)2 (purchased from SBA company, No.: 2022-01) and stimulated on ice for 10 minutes. The cells were rinsed with PBS buffer (pH 7.2) to remove IgM and resuspended in 100 μL of protein lysis buffer (purchased from Sigma, No.: C2978), and then prepared and quantified the protein sample. 100 μg of the protein sample were taken and loaded on polyacrylamide gels for electrophoresis under 200V of voltage. After electrophoresis, protein blots were transferred to a PVDF membrane. […] The protein expression was detected by coloration using ECL substrate (purchased from GE, No.: RPN2109).
For orientation: Immunoblotting shows a protein as a band on a membrane.

The next assay relates to DBA/1J mice. Description: Type II collagen-induced arthritis (CIA) model in DBA/1J mice. In kind it is in vivo. Particulars: 3 mg/kg and 10 mg/kg orally once a day for 14 days. The source says:
The CIA model is a widely-used animal model in the study of drugs for the treatment of rheumatoid arthritis in human. The experimental animals used in this experiment are DBA/1J mice (male, 6 to 8 weeks of age, purchased from Shanghai Silaike Laboratroy Animal Co., Ltd., China). Mice were housed in an IVC system.
In order to induce the mice CIA model, a bovine type II collagen (CII) (purchased from Chondrex company, No.: 20022) solution was emulsified with the same volume of complete Freund's adjuvant (CFA) (purchased from Sigma-Aldrich, No.: F5881) using an electronic homogenizer to prepare an emulsion. Then, 70 μL of the prepared emulsion was intradermally injected into the base of the tail of the mice as a primary immunization. Three weeks after the primary immunization, one booster immunization was carried out. […] According to the following criteria, Mice were evaluated for the severity of arthritis using an established scoring system ranging from 0 to 4 (0 score: no evidence of edema or swelling; 1 score: mild edema and redness confined to the ankle joint or tarsal; 2 scores: mild edema and redness, from the ankle joint to the tarsal; 3 scores: moderate edema and redness, from the ankle joint to the metatarsal; and 4 scores: severe edema and redness, from the ankle to the whole instep and toes, or ankylosis of the ankle or wrist joints). […]

Molecules are shown by their SMILES.

For `C=CC(=O)N1CC[C@@H](Nc2nc(Nc3cc(C)ns3)nc3ccsc23)C1` [Example 132, (R)-1-(3-((2-((3-methyl-isothiazol-5-yl)amino)thieno[3,2-d]pyrimidin-4-yl)amino)pyrrolidin-1-yl)prop-2-en-1-one], in assay [1], the “inhibition of expression of p-PLCγ2” value was “significantly inhibit the expressions of p-BTK and p-PLCγ2 in Ramos cells in a dose-dependent manner”. In addition, in the assay on DBA/1J mice, the “therapeutic effect on arthritis (arthritis severity scores)” value is “good therapeutic effect on arthritis in the CIA model at the designed doses in a dose dependent manner”.

The values above are taken from patent US10273242B2, “Compound inhibiting activities of BTK and/or JAK3 kinases” (BEIJING HANMI PHARMACEUTICAL CO., LTD., priority 2013, dated 2019).
